Active and inactive are the calls of the source. The rule behind the calls is not given here.
What was measured:
Mus musculus [1] = experiment: Acute toxicity in C57BL/6 mouse assessed as histopathological changes in kidney at 2 g/kg, ig measured for 2 weeks by hematoxylin and eosin staining based microscopic method; format: organism-based; conditions: in vivo, po, 2000 mg/kg, 336 h
EC9706 [2] = experiment: Antiproliferative activity against human EC9706 cells after 24 hrs by MTT assay; format: functional, cell-based; conditions: EC9706, 24 h
Mus musculus [3] = experiment: Acute toxicity in C57BL/6 mouse assessed as histopathological changes in spleen at 2 g/kg, ig measured for 2 weeks by hematoxylin and eosin staining based microscopic method; format: organism-based; conditions: in vivo, po, 2000 mg/kg, 336 h
ECa-109 cell line [4] = experiment: Anticlonogenic activity against human EC109 cells after 7 days by crystal violet staining based assay; format: functional, cell-based
EC9706 [5] = experiment: Induction of apoptosis in human EC9706 cells assessed as necrotic cells at 4 uM after 48 hrs in presence of caspase inhibitor Z-VAD-FMK by Annexin V-FITC/propidium iodide staining based flow cytometry (reference value: 1.2%); format: functional
EC9706 [6] = experiment: Induction of apoptosis in human EC9706 cells at 2 to 4 uM after 48 hrs in presence of anti-oxidant NAC by Annexin V-FITC/propidium iodide staining based flow cytometry; format: functional, cell-based
EC9706 [7] = experiment: Antiproliferative activity against human EC9706 cells after 72 hrs by MTT assay; format: functional, cell-based; conditions: EC9706, 72 h
EC9706 [8] = experiment: Induction of ROS generation in human EC9706 cells at 8 uM after 24 hrs by DCFH-DA staining based flow cytometry relative to control; format: functional
ECa-109 cell line [9] = experiment: Antiproliferative activity against human EC109 cells after 72 hrs by MTT assay; format: functional, cell-based; conditions: ECa-109, 72 h
EC9706 [10] = experiment: Upregulation of p27 protein expression in human EC9706 cells at 8 uM after 24 to 48 hrs by Western blot analysis relative to control; format: functional
ECa-109 cell line [11] = experiment: Induction of apoptosis in human EC109 cells assessed as live cells at 4 uM after 48 hrs by Annexin V-FITC/propidium iodide staining based flow cytometry (reference value: 95.2 to 99%); format: functional
EC9706 [12] = experiment: Cell cycle arrest in human EC9706 cells assessed as decrease in G2/M phase population at 2 uM after 24 hrs by propidium iodide staining based flow cytometry relative to control; format: functional
EC9706 [13] = experiment: Induction of apoptosis in human EC9706 cells assessed as live cells at 8 uM after 48 hrs in presence of caspase inhibitor Z-VAD-FMK by Annexin V-FITC/propidium iodide staining based flow cytometry (reference value: 95.7%); format: functional
ECa-109 cell line [14] = experiment: Induction of apoptosis in human EC109 cells assessed as increase in cleaved PARP protein expression after 48 hrs by Western blot analysis; format: functional, cell-based
EC9706 [15] = experiment: Induction of apoptosis in human EC9706 cells assessed as increase in Bax protein expression after 48 hrs by Western blot analysis; format: functional, cell-based
EC9706 [16] = experiment: Induction of apoptosis in human EC9706 cells assessed as increase in cleaved PARP protein expression after 48 hrs by Western blot analysis; format: functional, cell-based
ECa-109 cell line [17] = experiment: Induction of apoptosis in human EC109 cells assessed as late apoptotic cells at 4 uM after 48 hrs by Annexin V-FITC/propidium iodide staining based flow cytometry (reference value: 0.2 to 1.74%); format: functional
EC9706 [18] = experiment: Induction of apoptosis in human EC9706 cells assessed as late apoptotic cells at 8 uM after 48 hrs in presence of caspase inhibitor Z-VAD-FMK by Annexin V-FITC/propidium iodide staining based flow cytometry (reference value: 1.27%); format: functional
EC9706 [19] = experiment: Induction of apoptosis in human EC9706 cells assessed as live cells at 4 uM after 48 hrs by Annexin V-FITC/propidium iodide staining based flow cytometry (reference value: 85.5 to 96%); format: functional
ECa-109 cell line [20] = experiment: Antiproliferative activity against human EC109 cells after 48 hrs by MTT assay; format: functional, cell-based; conditions: ECa-109, 48 h
GES1 = experiment: Antiproliferative activity against human GES-1 cells after 72 hrs by MTT assay; format: cell-based; conditions: GES1, 72 h
ECa-109 cell line [21] = experiment: Upregulation of p27 protein expression in human EC109 cells at 4 uM after 24 to 48 hrs by Western blot analysis relative to control; format: functional
Mus musculus [22] = experiment: Acute toxicity in C57BL/6 mouse assessed as histopathological changes in liver at 2 g/kg, ig measured for 2 weeks by hematoxylin and eosin staining based microscopic method; format: organism-based; conditions: in vivo, po, 2000 mg/kg, 336 h
ECa-109 cell line [23] = experiment: Effect on Prxs-2 protein expression in human EC109 cells at 2 to 8 uM after 48 hrs by Western blot analysis; format: functional, cell-based
EC9706 [24] = experiment: Induction of apoptosis in human EC9706 cells assessed as early apoptotic cells at 8 uM after 48 hrs in presence of caspase inhibitor Z-VAD-FMK by Annexin V-FITC/propidium iodide staining based flow cytometry (reference value: 0.33%); format: functional
ECa-109 cell line [25] = experiment: Induction of apoptosis in human EC109 cells at 2 to 4 uM after 48 hrs in presence of anti-oxidant NAC by Annexin V-FITC/propidium iodide staining based flow cytometry; format: functional, cell-based
EC9706 [26] = experiment: Induction of apoptosis in human EC9706 cells assessed as late apoptotic cells at 2 uM after 48 hrs by Annexin V-FITC/propidium iodide staining based flow cytometry (reference value: 1.29 to 1.99%); format: functional
ECa-109 cell line [27] = experiment: Induction of apoptosis in human EC109 cells assessed as late apoptotic cells at 8 uM after 48 hrs in presence of caspase inhibitor Z-VAD-FMK by Annexin V-FITC/propidium iodide staining based flow cytometry (reference value: 0.01%); format: functional
[28] = Selectivity index, ratio of IC50 for antiproliferative activity against human GES-1 cells after 72 hrs to IC50 for antiproliferative activity against human MGC803 cells after 72 hrs; format: toxicity, cell-based; conditions: GES-1 cells versus MGC803 cells, read-out: Ratio IC50
EC9706 [29] = experiment: Induction of apoptosis in human EC9706 cells assessed as early apoptotic cells at 4 uM after 48 hrs by Annexin V-FITC/propidium iodide staining based flow cytometry (reference value: 0.68 to 1.58%); format: functional
ECa-109 cell line [30] = experiment: Induction of apoptosis in human EC109 cells assessed as necrotic cells at 8 uM after 48 hrs in presence of caspase inhibitor Z-VAD-FMK by Annexin V-FITC/propidium iodide staining based flow cytometry (reference value: 2.37%); format: functional
EC9706 [31] = experiment: Induction of ROS generation in human EC9706 cells at 2 to 4 uM after 24 hrs in presence of anti-oxidant NAC by DCFH-DA staining based flow cytometry; format: functional, cell-based
Mus musculus [32] = experiment: Acute toxicity in C57BL/6 mouse assessed as change in body weight at 2 g/kg, ig measured for 2 weeks; format: organism-based; conditions: in vivo, po, 2000 mg/kg, 336 h
EC9706 [33] = experiment: Induction of apoptosis in human EC9706 cells assessed as late apoptotic cells at 4 uM after 48 hrs in presence of caspase inhibitor Z-VAD-FMK by Annexin V-FITC/propidium iodide staining based flow cytometry (reference value: 1.27%); format: functional
EC9706 [34] = experiment: Induction of apoptosis in human EC9706 cells assessed as decrease in Bcl2 protein expression after 48 hrs by Western blot analysis; format: functional, cell-based
ECa-109 cell line [35] = experiment: Effect on Prxs-4 protein expression in human EC109 cells at 2 to 8 uM after 48 hrs by Western blot analysis; format: functional, cell-based
ECa-109 cell line [36] = experiment: Induction of apoptosis in human EC109 cells assessed as increase in cleaved caspase-8 protein expression after 48 hrs by Western blot analysis; format: functional, cell-based

COc1ccc(/C=N/NC(=O)c2cccc(S(=O)(=O)N3CCOCC3)c2)c(O)c1
Activity (Mus musculus [1]): Non-Toxic | IC50 (EC9706 [2]): > 20 µM | Activity (Mus musculus [3]): Non-Toxic | Activity (ECa-109 cell line [4]): Active | Activity (EC9706 [5]): 15.2% | Activity (EC9706 [6]): inactive | IC50 (EC9706 [7]): 1.09 µM | fold change (FC) (EC9706 [8]): 1.95 | IC50 (ECa-109 cell line [9]): 2.79 µM | fold change (FC) (EC9706 [10]): 1.7 | Activity (ECa-109 cell line [11]): 27.2 - 63.6% | fold change (FC) (EC9706 [12]): 0.28 | Activity (EC9706 [13]): 31% | Activity (ECa-109 cell line [14]): Dose-dependent effect | Activity (EC9706 [15]): Dose-dependent effect | Activity (EC9706 [16]): Dose-dependent effect | Activity (ECa-109 cell line [17]): 17.4 - 31.1% | Activity (EC9706 [18]): 25% | Activity (EC9706 [19]): 34.2 - 61.2% | IC50 (ECa-109 cell line [20]): 11.3 µM | IC50 (GES1): 14.4 µM | fold change (FC) (ECa-109 cell line [21]): 1.4 | Activity (Mus musculus [22]): Non-Toxic | Activity (ECa-109 cell line [23]): Active | Activity (EC9706 [24]): 16.4% | Activity (ECa-109 cell line [25]): inactive | Activity (EC9706 [26]): 6.25% | Activity (ECa-109 cell line [27]): 21.2% | selectivity ratio at 72 h [28]: 7.2 | Activity (EC9706 [29]): 10.8 - 29.9% | Activity (ECa-109 cell line [30]): 17.6% | Activity (EC9706 [31]): inactive | Activity (Mus musculus [32]): Non-Toxic | Activity (EC9706 [33]): 20.7% | Activity (EC9706 [34]): Dose-dependent effect | Activity (ECa-109 cell line [35]): Active | Activity (ECa-109 cell line [36]): Dose-dependent effect
